Experiment [1] addresses T1, GSPT1 (Homo sapiens, UniProt P15170+Q96SW2).
T1 construct: endogenous in cells; host or cells: hPBMCs (Milecell Biotechnologies)
As to the kind of experiment: Western-blot assay of substrate protein degradation in hPBMCs, GSPT1. Format: cell-based. Particulars: 24 hours of compound treatment, compounds tested at 50 nM and 500 nM (concentration of the table not stated).

Experiment [2] deals with T2, WEE1 (Homo sapiens, UniProt P30291+Q96SW2).
T2 construct: endogenous in cells; host or cells: hPBMCs (Milecell Biotechnologies)
As to the kind of experiment: Western-blot assay of substrate protein degradation in hPBMCs, WEE1. Format: cell-based. Particulars: 24 hours of compound treatment, compounds tested at 50 nM and 500 nM (concentration of the table not stated).

The target in experiment [3] is T3, IKZF1 (Homo sapiens, UniProt Q13422+Q96SW2).
T3 construct: endogenous in cells; host or cells: hPBMCs (Milecell Biotechnologies)
T3 sequence (Q13422 whole entry): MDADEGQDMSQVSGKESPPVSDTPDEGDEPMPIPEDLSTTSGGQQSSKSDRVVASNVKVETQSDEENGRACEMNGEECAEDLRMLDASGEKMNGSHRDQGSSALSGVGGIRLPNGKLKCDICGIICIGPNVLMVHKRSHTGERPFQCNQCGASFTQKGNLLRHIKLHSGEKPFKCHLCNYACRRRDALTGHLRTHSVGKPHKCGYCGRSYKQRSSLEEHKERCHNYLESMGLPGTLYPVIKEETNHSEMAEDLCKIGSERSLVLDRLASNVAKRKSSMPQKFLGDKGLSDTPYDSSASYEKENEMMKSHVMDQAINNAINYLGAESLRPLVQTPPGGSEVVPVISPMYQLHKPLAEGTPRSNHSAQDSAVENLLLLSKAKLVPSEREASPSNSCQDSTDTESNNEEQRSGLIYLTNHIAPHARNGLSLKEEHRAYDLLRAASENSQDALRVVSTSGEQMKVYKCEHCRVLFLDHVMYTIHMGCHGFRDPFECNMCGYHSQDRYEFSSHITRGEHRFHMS
T3 sequence (Q96SW2 whole entry): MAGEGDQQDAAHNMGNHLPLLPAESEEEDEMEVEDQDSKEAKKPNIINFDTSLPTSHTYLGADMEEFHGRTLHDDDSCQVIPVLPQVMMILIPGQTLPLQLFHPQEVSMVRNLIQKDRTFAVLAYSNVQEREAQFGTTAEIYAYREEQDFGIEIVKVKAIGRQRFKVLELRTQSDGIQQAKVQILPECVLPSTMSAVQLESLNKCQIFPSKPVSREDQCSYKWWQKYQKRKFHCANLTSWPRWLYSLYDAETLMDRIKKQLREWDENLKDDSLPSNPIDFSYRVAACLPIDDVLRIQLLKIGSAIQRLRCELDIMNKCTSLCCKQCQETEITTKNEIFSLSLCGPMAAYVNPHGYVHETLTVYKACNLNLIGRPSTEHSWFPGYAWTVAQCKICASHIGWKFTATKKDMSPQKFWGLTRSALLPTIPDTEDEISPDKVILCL
T3 sequence (Q16531 whole entry partner): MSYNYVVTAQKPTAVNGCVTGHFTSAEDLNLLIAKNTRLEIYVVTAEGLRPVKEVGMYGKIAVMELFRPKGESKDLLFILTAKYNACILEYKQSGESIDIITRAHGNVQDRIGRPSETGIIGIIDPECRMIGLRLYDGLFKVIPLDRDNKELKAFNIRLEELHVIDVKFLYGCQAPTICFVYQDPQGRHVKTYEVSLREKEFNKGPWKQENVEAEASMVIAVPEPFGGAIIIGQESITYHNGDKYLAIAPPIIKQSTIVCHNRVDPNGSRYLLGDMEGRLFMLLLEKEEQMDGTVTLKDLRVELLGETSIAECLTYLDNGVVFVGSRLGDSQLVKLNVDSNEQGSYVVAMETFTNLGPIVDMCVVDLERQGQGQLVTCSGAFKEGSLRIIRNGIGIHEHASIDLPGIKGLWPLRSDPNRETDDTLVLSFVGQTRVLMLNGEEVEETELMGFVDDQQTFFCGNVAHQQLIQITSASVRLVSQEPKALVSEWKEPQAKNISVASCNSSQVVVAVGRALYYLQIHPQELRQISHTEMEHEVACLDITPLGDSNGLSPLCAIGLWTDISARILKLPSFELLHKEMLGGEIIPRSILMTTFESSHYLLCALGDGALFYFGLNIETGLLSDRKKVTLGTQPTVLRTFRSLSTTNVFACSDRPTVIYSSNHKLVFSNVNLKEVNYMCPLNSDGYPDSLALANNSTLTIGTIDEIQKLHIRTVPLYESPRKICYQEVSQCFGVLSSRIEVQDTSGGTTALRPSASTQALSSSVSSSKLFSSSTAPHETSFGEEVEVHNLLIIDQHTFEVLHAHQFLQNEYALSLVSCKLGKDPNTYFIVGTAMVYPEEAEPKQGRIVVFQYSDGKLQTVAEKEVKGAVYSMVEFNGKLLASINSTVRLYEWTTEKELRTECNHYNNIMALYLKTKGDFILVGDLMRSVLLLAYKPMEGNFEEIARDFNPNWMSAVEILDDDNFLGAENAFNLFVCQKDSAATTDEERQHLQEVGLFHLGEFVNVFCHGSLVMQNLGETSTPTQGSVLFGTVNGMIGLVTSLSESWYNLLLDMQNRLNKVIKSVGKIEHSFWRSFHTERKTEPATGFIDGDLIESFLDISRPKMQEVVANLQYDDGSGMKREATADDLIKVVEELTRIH
Nature of the experiment: Western-blot assay of substrate protein degradation in hPBMCs, IKZF1. Format: cell-based. The following applies: 24 hours of compound treatment, compounds tested at 50 nM and 500 nM (concentration of the table not stated).

For experiment [4], the system named is Human breast cancer cells (MDA-MB-231). As to the kind of experiment: Tumor cell proliferation inhibition (CellTiter-Meiluncell Luminescent Cell Viability Assay), MDA-MB-231. Particulars: MDA-MB-231, 96 h, read-out: inhibitory activity (IC50, nM) against tumor cells proliferation, MDA-MB-231.
The subject of experiment [5] is MM.1R. As to the kind of experiment: Tumor cell proliferation inhibition (CellTiter-Meiluncell Luminescent Cell Viability Assay), MM.1R. Particulars: Homo sapiens, 96 h, read-out: inhibitory activity (IC50, nM) against tumor cells proliferation, MM.1R.
Experiment [6] deals with CAL-62. As to the kind of experiment: Tumor cell proliferation inhibition (CellTiter-Meiluncell Luminescent Cell Viability Assay), CAL-62. Particulars: Homo sapiens, CAL-62, 96 h, read-out: inhibitory activity (IC50, nM) against tumor cells proliferation, CAL-62.
In experiment [7] the test system is Human acute T lymphocytic leukemia cells (Molt-4). As to the kind of experiment: Tumor cell proliferation inhibition (CellTiter-Meiluncell Luminescent Cell Viability Assay), Molt-4. The following applies: MOLT-4, 96 h, read-out: inhibitory activity (IC50, nM) against tumor cells proliferation, Molt 4.
Experiment [8] addresses T4, CK1α (Homo sapiens, UniProt P48729+Q96SW2).
T4 construct: endogenous in cells; host or cells: hPBMCs (Milecell Biotechnologies)
Nature of the experiment: Western-blot assay of substrate protein degradation in hPBMCs, CK1α. The following applies: 24 hours of compound treatment, compounds tested at 50 nM and 500 nM (concentration of the table not stated). Format: cell-based.

Experiment [9] addresses T5, human Cereblon WT GST-tagged protein (Homo sapiens, UniProt Q96SW2).
T5 construct: purchased CISBIO 64BDCRBNPEH
As to the kind of experiment: CRBN-binding affinity by HTRF (CEREBLON BINDING kit). The following applies: HTRF inhibitory activity, CEREBLON BINDING kit; read-out: HTRF IC50. (Time-resolved FRET reads energy transfer from a long-lived donor to a nearby acceptor.)

The test system of experiment [10] is NCI-H1975. Nature of the experiment: Tumor cell proliferation inhibition (CellTiter-Meiluncell Luminescent Cell Viability Assay), NCI-H1975. The following applies: Homo sapiens, NCI-H1975, 96 h, read-out: inhibitory activity (IC50, nM) against tumor cells proliferation, H1975.
The target in experiment [11] is T6, IKZF2 (Homo sapiens, UniProt Q96SW2+Q9UKS7).
T6 construct: endogenous in cells; host or cells: hPBMCs (Milecell Biotechnologies)
T6 sequence (Q9UKS7 whole entry): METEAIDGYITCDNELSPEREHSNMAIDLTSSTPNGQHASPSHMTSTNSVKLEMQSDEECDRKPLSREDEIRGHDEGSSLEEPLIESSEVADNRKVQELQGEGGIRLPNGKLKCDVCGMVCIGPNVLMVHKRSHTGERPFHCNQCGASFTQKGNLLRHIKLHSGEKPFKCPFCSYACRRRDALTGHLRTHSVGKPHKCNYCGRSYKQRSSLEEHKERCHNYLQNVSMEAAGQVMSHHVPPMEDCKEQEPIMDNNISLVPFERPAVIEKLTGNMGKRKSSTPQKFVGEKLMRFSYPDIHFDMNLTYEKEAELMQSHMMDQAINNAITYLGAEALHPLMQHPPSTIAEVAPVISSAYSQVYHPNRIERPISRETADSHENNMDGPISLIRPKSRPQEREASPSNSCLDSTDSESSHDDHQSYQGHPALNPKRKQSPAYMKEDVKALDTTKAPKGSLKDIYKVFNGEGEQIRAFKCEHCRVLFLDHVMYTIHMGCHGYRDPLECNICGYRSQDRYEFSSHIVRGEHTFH
T6 sequence (Q96SW2 whole entry): as the sequence (Q96SW2 whole entry) above
T6 sequence (Q16531 whole entry partner): as the sequence (Q16531 whole entry partner) above
As to the kind of experiment: Western-blot assay of substrate protein degradation in hPBMCs, IKZF2. The format is cell-based. The following applies: 24 hours of compound treatment, compounds tested at 50 nM and 500 nM (concentration of the table not stated).

The subject of experiment [12] is Jurkat. As to the kind of experiment: Tumor cell proliferation inhibition (CellTiter-Meiluncell Luminescent Cell Viability Assay), Jurkat. Particulars: Homo sapiens, 96 h, read-out: inhibitory activity (IC50, nM) against tumor cells proliferation, Jurkat.
The target in experiment [13] is T7, IKZF3 (Homo sapiens, UniProt Q96SW2+Q9UKT9).
T7 construct: endogenous in cells; host or cells: hPBMCs (Milecell Biotechnologies)
T7 sequence (Q9UKT9 whole entry): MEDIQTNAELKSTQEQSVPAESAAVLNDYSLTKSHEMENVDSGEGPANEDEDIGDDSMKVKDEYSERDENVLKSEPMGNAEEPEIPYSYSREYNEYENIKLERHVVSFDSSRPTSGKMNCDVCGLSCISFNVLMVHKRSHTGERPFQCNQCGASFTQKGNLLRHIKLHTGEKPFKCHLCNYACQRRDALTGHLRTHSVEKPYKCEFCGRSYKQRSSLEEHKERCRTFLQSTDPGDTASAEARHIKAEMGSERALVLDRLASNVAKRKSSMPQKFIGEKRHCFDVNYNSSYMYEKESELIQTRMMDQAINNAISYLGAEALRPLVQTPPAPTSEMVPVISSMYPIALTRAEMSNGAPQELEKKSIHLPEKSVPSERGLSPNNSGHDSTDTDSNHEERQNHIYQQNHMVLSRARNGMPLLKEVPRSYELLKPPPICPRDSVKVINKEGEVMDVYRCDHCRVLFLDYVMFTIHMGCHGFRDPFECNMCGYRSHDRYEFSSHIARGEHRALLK
T7 sequence (Q96SW2 whole entry): as the sequence (Q96SW2 whole entry) above
T7 sequence (Q16531 whole entry partner): as the sequence (Q16531 whole entry partner) above
As to the kind of experiment: Western-blot assay of substrate protein degradation in hPBMCs, IKZF3. The format is cell-based. Particulars: 24 hours of compound treatment, compounds tested at 50 nM and 500 nM (concentration of the table not stated).

T4 sequence (P48729 whole entry): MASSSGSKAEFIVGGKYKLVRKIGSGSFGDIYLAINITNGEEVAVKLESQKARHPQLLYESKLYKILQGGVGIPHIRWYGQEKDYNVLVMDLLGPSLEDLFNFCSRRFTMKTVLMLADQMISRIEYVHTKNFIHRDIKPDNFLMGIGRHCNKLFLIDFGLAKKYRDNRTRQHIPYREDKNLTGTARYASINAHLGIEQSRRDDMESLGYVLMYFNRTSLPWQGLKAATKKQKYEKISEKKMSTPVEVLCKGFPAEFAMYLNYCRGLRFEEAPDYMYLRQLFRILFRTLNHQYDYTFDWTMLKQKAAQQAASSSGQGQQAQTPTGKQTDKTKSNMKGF
T4 sequence (Q96SW2 whole entry): as the sequence (Q96SW2 whole entry) above
T4 sequence (Q16531 whole entry partner): as the sequence (Q16531 whole entry partner) above
T5 sequence (Q96SW2 whole entry): as the sequence (Q96SW2 whole entry) above
T1 sequence (P15170 whole entry): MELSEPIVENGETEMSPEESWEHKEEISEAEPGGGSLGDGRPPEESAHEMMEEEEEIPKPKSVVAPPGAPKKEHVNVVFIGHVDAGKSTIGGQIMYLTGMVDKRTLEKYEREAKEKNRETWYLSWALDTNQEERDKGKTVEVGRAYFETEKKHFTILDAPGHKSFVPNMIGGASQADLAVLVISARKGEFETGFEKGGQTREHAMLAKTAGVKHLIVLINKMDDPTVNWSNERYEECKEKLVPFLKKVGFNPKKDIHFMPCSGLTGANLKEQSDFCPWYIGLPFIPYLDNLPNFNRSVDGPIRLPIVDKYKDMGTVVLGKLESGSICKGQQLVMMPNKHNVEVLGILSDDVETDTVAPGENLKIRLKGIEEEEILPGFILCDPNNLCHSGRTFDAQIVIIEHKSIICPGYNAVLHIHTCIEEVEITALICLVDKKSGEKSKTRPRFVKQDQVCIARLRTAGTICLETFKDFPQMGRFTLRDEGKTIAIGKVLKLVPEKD
T1 sequence (Q96SW2 whole entry): as the sequence (Q96SW2 whole entry) above
T1 sequence (Q16531 whole entry partner): as the sequence (Q16531 whole entry partner) above

In the case of `O=C1CCC(N2Cc3cc(CN4CCN(c5cccc(F)c5F)CC4)ccc3C2=O)C(=O)N1` (stereo not drawn) [GT-04515, 3-(5-((4-(2,3-difluorophenyl)piperazin-1-yl)methyl)-1-oxoisoindolin-2-yl)piperidine-2,6-dione], the “GSPT1 substrate protein remaining %” value in experiment [1] is on record as “A (0% ≤ substrate protein remaining % ≤ 80%)”. Moreover, in [2], the “Weel substrate protein remaining %” value is listed as “A (0% ≤ substrate protein remaining % ≤ 80%)”. Besides, in [3], the “IKZF 1 substrate protein remaining %” value is reported as “A (0% ≤ substrate protein remaining % ≤ 80%)”. Also, the IC50 is 50 to 100 nM in experiment [4]; 5 to 10 nM in [5]; 10 to 50 nM in experiment [6]; 5 to 10 nM in [7]; 500 to 1000 nM in [9]; 50 to 100 nM in experiment [10]. Further, the IC50 in experiment [12] lay in the range of 50 to 100 nM. In addition, the “CK1a substrate protein remaining %” value in experiment [8] was “A (0% ≤ substrate protein remaining % ≤ 80%)”. For the same molecule, the “IKZF2 substrate protein remaining %” value in experiment [11] is “A (0% ≤ substrate protein remaining % ≤ 80%)”. Besides, the “IKZF3 substrate protein remaining %” value in experiment [13] is “A (0% ≤ substrate protein remaining % ≤ 80%)”.

As to `O=C1CCC(N2Cc3cc(CN4CCN(c5cccc(Cl)c5Cl)CC4)c(F)cc3C2=O)C(=O)N1` (stereo not drawn) [GT-04527, 3-(5-((4-(2,3-dichlorophenyl)piperazin-1-yl)methyl)-6-fluoro-1-oxoisoindolin-2-yl)piperidine-2,6-dione], in experiment [1], the “GSPT1 substrate protein remaining %” value is on record as “A (0% ≤ substrate protein remaining % ≤ 80%)”. For the same molecule, the “Weel substrate protein remaining %” value in experiment [2] is on record as “A (0% ≤ substrate protein remaining % ≤ 80%)”. Besides, the “IKZF 1 substrate protein remaining %” value in [3] is given as “B (80%< substrate protein remaining %≤ 100%)”. Moreover, the IC50 in experiment [4] was in the range of 10 to 50 nM; in experiment [5], 5 to 10 nM; in experiment [6], 1 to 5 nM; in [7], 1 to 5 nM; in [10], 10 to 50 nM; in experiment [12], 500 to 1000 nM. Moreover, the “CK1a substrate protein remaining %” value in experiment [8] is “A (0% ≤ substrate protein remaining % ≤ 80%)”. Moreover, in [11], the “IKZF2 substrate protein remaining %” value was “A (0% ≤ substrate protein remaining % ≤ 80%)”. The “IKZF3 substrate protein remaining %” value in experiment [13] is listed as “A (0% ≤ substrate protein remaining % ≤ 80%)”.

Regarding `Cc1cccc(N2CCN(Cc3ccc4c(c3)CN(C3CCC(=O)NC3=O)C4=O)CC2)n1` (stereo not drawn) [GT-04530, 3-(5-((4-(6-methylpyridin-2-yl)piperazin-1-yl)methyl)-1-oxoisoindolin-2-yl)piperidine-2,6-dione], the “GSPT1 substrate protein remaining %” value in experiment [1] was “A (0% ≤ substrate protein remaining % ≤ 80%)”. Moreover, the “Weel substrate protein remaining %” value in [2] is on record as “A (0% ≤ substrate protein remaining % ≤ 80%)”. For the same molecule, in experiment [3], the “IKZF 1 substrate protein remaining %” value is given as “A (0% ≤ substrate protein remaining % ≤ 80%)”. In addition, the IC50 in experiment [4] was 50 to 100 nM; in [5], 10 to 50 nM; in experiment [6], 10 to 50 nM; in experiment [7] it was 10 to 50 nM; in experiment [9] it was 500 to 1000 nM; in experiment [10], 100 to 500 nM. Further, the IC50 in [12] was in the range of 5 to 10 nM. Besides, the “CK1a substrate protein remaining %” value in experiment [8] is listed as “A (0% ≤ substrate protein remaining % ≤ 80%)”. The “IKZF2 substrate protein remaining %” value in [11] was “A (0% ≤ substrate protein remaining % ≤ 80%)”. Besides, in experiment [13], the “IKZF3 substrate protein remaining %” value is “A (0% ≤ substrate protein remaining % ≤ 80%)”.

As to `O=C1CCC(N2Cc3cc(CN4CCN(c5ccc(F)cn5)CC4)ccc3C2=O)C(=O)N1` (stereo not drawn) [GT-04531, 3-(5-((4-(5-fluoropyridin-2-yl)piperazin-1-yl)methyl)-1-oxoisoindolin-2-yl)piperidine-2,6-dione], in experiment [1], the “GSPT1 substrate protein remaining %” value is “A (0% ≤ substrate protein remaining % ≤ 80%)”. Also, the “Weel substrate protein remaining %” value in experiment [2] is listed as “A (0% ≤ substrate protein remaining % ≤ 80%)”. The “IKZF 1 substrate protein remaining %” value in experiment [3] is recorded as “A (0% ≤ substrate protein remaining % ≤ 80%)”. Besides, the IC50 lay within 100 to 500 nM in experiment [4]; 10 to 50 nM in [5]; 10 to 50 nM in experiment [6]; 10 to 50 nM in experiment [7]; 500 to 1000 nM in [9]; 100 to 500 nM in [10]. Moreover, the IC50 in [12] lay in the range of 5 to 10 nM. Also, the “CK1a substrate protein remaining %” value in experiment [8] is “A (0% ≤ substrate protein remaining % ≤ 80%)”. In addition, the “IKZF2 substrate protein remaining %” value in experiment [11] is listed as “A (0% ≤ substrate protein remaining % ≤ 80%)”. For the same molecule, the “IKZF3 substrate protein remaining %” value in experiment [13] is listed as “A (0% ≤ substrate protein remaining % ≤ 80%)”.

In the case of `O=C1CCC(N2Cc3cc(CN4CCN(c5cc(Cl)c(Cl)cn5)CC4)ccc3C2=O)C(=O)N1` (stereo not drawn) [GT-04533, 3-(5-((4-(4,5-dichloropyridin-2-yl)piperazin-1-yl)methyl)-1-oxoisoindolin-2-yl)piperidine-2,6-dione], the “GSPT1 substrate protein remaining %” value in experiment [1] is reported as “A (0% ≤ substrate protein remaining % ≤ 80%)”. In addition, the “Weel substrate protein remaining %” value in experiment [2] is reported as “A (0% ≤ substrate protein remaining % ≤ 80%)”. Besides, in experiment [3], the “IKZF 1 substrate protein remaining %” value is given as “A (0% ≤ substrate protein remaining % ≤ 80%)”. Further, the IC50 in experiment [4] lay in the range of 50 to 100 nM; in [5], 1 to 5 nM; in experiment [6], 5 to 10 nM; in experiment [7], 1 to 5 nM; in [9] it was 500 to 1000 nM; in [10], 50 to 100 nM. The IC50 in [12] lay within 1 to 5 nM. In addition, the “CK1a substrate protein remaining %” value in experiment [8] is reported as “A (0% ≤ substrate protein remaining % ≤ 80%)”. Besides, the “IKZF2 substrate protein remaining %” value in experiment [11] is on record as “A (0% ≤ substrate protein remaining % ≤ 80%)”. For the same molecule, the “IKZF3 substrate protein remaining %” value in experiment [13] is “A (0% ≤ substrate protein remaining % ≤ 80%)”.

On to `Cc1cc(N2CCN(Cc3ccc4c(c3)CN(C3CCC(=O)NC3=O)C4=O)CC2)cs1` (stereo not drawn) [GT-04549, 3-(5-((4-(5-methylthiophen-3-yl)piperazin-1-yl)methyl)-1-oxoisoindolin-2-yl)piperidine-2,6-dione], for which the “GSPT1 substrate protein remaining %” value in experiment [1] is “A (0% ≤ substrate protein remaining % ≤ 80%)”. Also, the “Weel substrate protein remaining %” value in [2] is listed as “A (0% ≤ substrate protein remaining % ≤ 80%)”. Further, the “IKZF 1 substrate protein remaining %” value in experiment [3] is on record as “A (0% ≤ substrate protein remaining % ≤ 80%)”. The IC50 in experiment [4] was in the range of 100 to 500 nM; in experiment [5] it was 100 to 500 nM; in [6], 10 to 50 nM; in [7], 5 to 10 nM; in [9] it was 500 to 1000 nM; in experiment [10], 100 to 500 nM. In experiment [12], the IC50 was in the range of 5 to 10 nM. The “CK1a substrate protein remaining %” value in [8] is reported as “A (0% ≤ substrate protein remaining % ≤ 80%)”. The “IKZF2 substrate protein remaining %” value in experiment [11] was “A (0% ≤ substrate protein remaining % ≤ 80%)”. In addition, in [13], the “IKZF3 substrate protein remaining %” value is recorded as “A (0% ≤ substrate protein remaining % ≤ 80%)”.

In the case of `O=C1CCC(N2Cc3cc(CN4CC=C(c5cccc(Cl)c5Cl)CC4)ccc3C2=O)C(=O)N1` (stereo not drawn) [GT-04550, 3-(5-((4-(2,3-dichlorophenyl)-3,6-dihydropyridin-1(2H)-yl)methyl)-1-oxoisoindolin-2-yl)piperidine-2,6-dione], in experiment [1], the “GSPT1 substrate protein remaining %” value is listed as “A (0% ≤ substrate protein remaining % ≤ 80%)”. Also, the “Weel substrate protein remaining %” value in [2] is “A (0% ≤ substrate protein remaining % ≤ 80%)”. For the same molecule, the “IKZF 1 substrate protein remaining %” value in experiment [3] is reported as “A (0% ≤ substrate protein remaining % ≤ 80%)”. Besides, the IC50 was 1 to 5 nM in experiment [4]; < 1 nM in experiment [5]; < 1 nM in [6]; < 1 nM in experiment [7]; < 500 nM in experiment [9]; 1 to 5 nM in [10]. Further, the IC50 in experiment [12] was < 1 nM. Also, the “CK1a substrate protein remaining %” value in experiment [8] is “A (0% ≤ substrate protein remaining % ≤ 80%)”. The “IKZF2 substrate protein remaining %” value in experiment [11] is reported as “A (0% ≤ substrate protein remaining % ≤ 80%)”. For the same molecule, the “IKZF3 substrate protein remaining %” value in [13] is reported as “A (0% ≤ substrate protein remaining % ≤ 80%)”.
